Entries after “also recorded” stand apart in the source; their conditions may differ.

Here are results for six compounds from patent US5512464A, “Method of producing high fructose corn syrup from glucose using noble gases” (American Air Liquide, priority 1994, dated 1996).

For series [1], the system named is α-amylase. Put plainly: Effect of noble gases on α-amylase reaction. The format is biochemical, Bacillus licheniformis. The following applies: generally observed. From the text:
PNPG7 is p-nitrophenyl-α-D-maltoheptaoside.
1. Reaction Principle: [drawing 3] 2.

Series [2] deals with T1, glucose isomerase (Streptomyces murinus, UniProt P37031).
T1 construct: purchased Novo Sweetzyme T
Put plainly: Glucose isomerase column runs under gas saturation (Example 7). The following applies: for reaching point of equilibrium (fructose to glucose vs glucose to fructose conversion): 100 hr run, gas saturated columns, FIG. 13; for averages of fructose to glucose and glucose to fructose conversions: averages for each gas, FIG. 15; for conversion of glucose to fructose (activity+flow rate difference): lower flow rate, under Ne, Ar and N2, FIG. 11. The format is biochemical. On the procedure: A comprehensive experiment was undertaken in order to relate the effects of noble gases upon the important process parameters of temperature, flow rate, enzyme activity and reaction equilibrium. In this experiment, four identical jacketed 1.6×35 cm (70 cc bed volume) columns containing 15 grams dry weight (40 cc bed volume) of the glucose isomerase packing used in the Vial. Runs were prepared according to the protocol outlined above. The columns and substrates were saturated with the gas of interest from a choice of argon, neon, nitrogen, krypton, xenon, helium, or a decile combination of any two or three of these.
One column was run at 0.2 ml/min at 50°, one at 0.2 ml/min at 60°, one at 0.5 ml/min at 50°, and one at 0.5 ml/min at 60°. […] During the first set of experiments, glucose feedstock (as prepared above) was used. During the second set, fructose feedstock of identical concentration was used to analyze the reverse reaction.
Data collected included flow rate, % glucose, % fructose, quantitative evaluation of fructose and glucose, dry solids, temperature, and residual gases.
Comparison of the data for each combination of experiments allows the determination of the effect of the gas, the temperature, the flow rate, the enzyme activity, and the reaction equilibrium. These are each determined independently, then the contribution of each parameter to the others can be calculated. For instance, elevating the temperature increases the flow rate, while lowering temperature and increasing the flow rate maximizes gas effects.

In series [3] the target is T1, glucose isomerase. Put plainly: Effect of gases on glucose isomerase reaction (vial runs, general statements). The format is biochemical. To be noted: for order of enhancing effect: glucose isomerase, generally observed. On the procedure:
Two sets of 125 ml serum vials are prepared for each studied gas, one containing the glucose substrate solution (80 ml per vial) and the other one containing Sweetzyme T (5 g dry/vial).
On day D, place the substrate vials into a shaking water bath (60° C., 140 rpm). Allow them to equilibrate in temperature. For each substrate vial, fill a 60 cc B-D syringe with the appropriate gas or gas mixture and inject it in the vial. Remove the substrate vial from the shaker bath and replace it with the corresponding enzyme vial. Allow the positive pressure in the substrate vial to fill the syringe with glucose solution up to 60 ml. Stopper syringe needle with a septum. Repeat this procedure for each vial. When all the substrate vials have been sampled, inject the content of each syringe (60 ml of gas-saturated glucose solution) into the corresponding enzyme vial. The enzyme vials are injected at 2 minute intervals. The time of the injection determine t0 for each vial.
The respective concentrations of glucose and fructose in the samples are determined by High Pressure Liquid Chromatography.

For series [4], the target named is T2, amyloglucosidase (Aspergillus niger, UniProt P69328).
T2 construct: purchased Sigma Chemical A-7420
Put plainly: Effect of noble gases on amyloglucosidase reaction. To be noted: amylyoglucoside (so in the source), generally observed. The format is biochemical. From the text:
1. Reaction Principle: [drawing 3] 2. Solution Preparation:

Series [5] in a line: Gas solubility. The format is physicochemical.
In series [6] the test system is amylase, amyloglucosidase and glucose isomerase. Put plainly: Enzymatic reaction enhancement in the HFCS process (all three enzymes). The format is biochemical. From the text:
Generally, in accordance with the present invention, enzymatic reaction enhancements measured in terms of either rate of yield or stability parameters, and are relative to reactions conducted in air or with no added gases, or to reactions run with added nitrogen, or to a combination of the above. Depending upon the relative controls, enhancements of rate between about 0 and 20% and yield enhancements of about 0 to 5% for glucose isomerase have been obtained.

T1 sequence (P37031 whole entry): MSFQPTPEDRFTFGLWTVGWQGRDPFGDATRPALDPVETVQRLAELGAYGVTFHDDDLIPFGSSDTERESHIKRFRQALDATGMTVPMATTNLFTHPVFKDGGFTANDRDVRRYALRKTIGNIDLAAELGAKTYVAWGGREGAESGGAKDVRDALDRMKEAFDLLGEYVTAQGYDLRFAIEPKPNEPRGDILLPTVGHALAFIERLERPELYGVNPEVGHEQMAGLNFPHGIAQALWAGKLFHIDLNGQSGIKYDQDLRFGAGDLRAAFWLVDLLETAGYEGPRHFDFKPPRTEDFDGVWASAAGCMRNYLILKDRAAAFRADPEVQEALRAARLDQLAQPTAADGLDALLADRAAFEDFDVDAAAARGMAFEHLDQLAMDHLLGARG
T2 sequence (P69328 25-640): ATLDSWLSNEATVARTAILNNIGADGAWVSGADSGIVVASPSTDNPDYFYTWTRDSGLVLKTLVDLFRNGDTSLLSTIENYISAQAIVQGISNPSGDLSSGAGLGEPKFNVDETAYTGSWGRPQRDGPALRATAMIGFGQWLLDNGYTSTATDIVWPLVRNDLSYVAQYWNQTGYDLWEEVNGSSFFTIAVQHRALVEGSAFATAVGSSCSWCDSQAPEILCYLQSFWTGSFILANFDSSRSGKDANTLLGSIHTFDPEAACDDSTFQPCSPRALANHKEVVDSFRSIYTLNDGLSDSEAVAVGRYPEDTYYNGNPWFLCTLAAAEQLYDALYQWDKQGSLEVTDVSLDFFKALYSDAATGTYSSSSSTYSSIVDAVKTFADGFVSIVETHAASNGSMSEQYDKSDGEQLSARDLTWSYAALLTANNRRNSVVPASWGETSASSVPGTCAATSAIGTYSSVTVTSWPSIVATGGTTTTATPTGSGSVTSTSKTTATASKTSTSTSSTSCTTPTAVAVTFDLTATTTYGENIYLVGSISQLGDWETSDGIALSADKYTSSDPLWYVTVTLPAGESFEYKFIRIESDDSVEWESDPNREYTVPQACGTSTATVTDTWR

Take `[Ar]` [argon]: the “order of enhancing effect” value in series [1] is “Xe>Ar>Ne>Kr>He”; in series [3], “Ne>Ar>Kr>Xe>He”; in series [4], “Xe>Ar>Ne>Kr>He”. In series [2], the “reaching point of equilibrium (fructose to glucose vs glucose to fructose conversion)” value is “reach equilibrium before nitrogen saturated columns”. For the same compound, the “averages of fructose to glucose and glucose to fructose conversions” value in series [2] is “improvement”. In addition, in series [2], the “conversion of glucose to fructose (activity+flow rate difference)” value was “highest conversion”.

Regarding `[He]` [helium], the “order of enhancing effect” value in series [1] is “Xe>Ar>Ne>Kr>He”; in series [3], “Ne>Ar>Kr>Xe>He”; in series [4], “Xe>Ar>Ne>Kr>He”. In series [5], the solubility result is listed as “low solubility”. Moreover, the “effectiveness in enhancing enzymatic activity” value in series [6] is listed as “effective”.

As to `[Kr]` [krypton], the “order of enhancing effect” value in series [1] is reported as “Xe>Ar>Ne>Kr>He”; in series [3] it was “Ne>Ar>Kr>Xe>He”; in series [4] it was “Xe>Ar>Ne>Kr>He”.

For the compound `[Ne]` [neon], the “order of enhancing effect” value in series [1] was “Xe>Ar>Ne>Kr>He”. Also, in series [2], the “reaching point of equilibrium (fructose to glucose vs glucose to fructose conversion)” value is “reach equilibrium before nitrogen saturated columns”; the “averages of fructose to glucose and glucose to fructose conversions” value is “improvement”; the “conversion of glucose to fructose (activity+flow rate difference)” value is given as “significant but lesser enhancement over nitrogen”. In addition, the “order of enhancing effect” value in series [3] is recorded as “Ne>Ar>Kr>Xe>He”. Also, the “order of enhancing effect” value in series [4] is “Xe>Ar>Ne>Kr>He”.

Take `O=O` [oxygen]: the “inhibition of glucose isomerase / Sweetzyme T activity” value in series [3] was “greatly inhibited; also recorded: inhibitor”.

For the compound `[Xe]` [xenon], the entries for the “order of enhancing effect” value in series [1], in series [3] and in series [4] were “Xe>Ar>Ne>Kr>He”, “Ne>Ar>Kr>Xe>He” and “Xe>Ar>Ne>Kr>He”, respectively.
